Test results as given in patent US20080188540A1, “PHARMACEUTICAL COMPOSITIONS CONTAINING SUBSTITUTED INDOLE ACID DERIVATIVES AS INHIBITORS OF PLASMINOGEN ACTIVATOR INHIBITOR-1 (PAI-1)” (Wyeth, priority 2007, published 2008).
In brackets after ≈: the same amount, converted by molar mass. Several values for one entry are separate records, joined by “and”; a condition that tells them apart may be missing. Identical values can stand only once. Entries after “also recorded” stand apart in the source; their conditions may differ. Like-named read-outs stand apart in the source and are kept apart here.

Legend:
[1] = Bioavailability of three formulations, single oral gavage dose, plasma pharmacokinetics; type: in vivo; conditions: Formula C, fasted male dogs, individual dogs and Mean; for Plasma concentration: oral 300 mg/kg
Procedure: Three formulations were evaluated for the bioavilability of [1-(4-tert-butylbenzyl)-5-(3-methylphenyl)-1h-indol-3-yl](oxo)acetic acid in male dogs. Following a single oral (gavage, 300 mg/kg) dose of [1-(4-tert-butylbenzyl)-5-(3-methylphenyl)-1h-indol-3-yl](oxo)acetic acid, blood samples were drawn at 0 (predose), 0.25, 0.5, 1, 2, 3, 4, 6, 8, 10, 12, 24 and 30 hours. The pharmacokinetic parameters, AUC, Cmax, tmax and t1/2, were determined for each dog, and descriptive statistics were calculated for comparison among formulations.
Individual plasma concentrations over time after dosing Formula C are tabulated and plotted in Table 2 and FIG. 2 respectively.

[2] = Solubility profile (free acid in HCl/NaOH solution, centrifugation, supernatant assayed by HPLC); type: physicochemical
Text: In some embodiments, the [1-(4-tert-Butylbenzyl)-5-(3-methylphenyl)-1H-indol-3-yl](oxo)acetic acid used with the composition of the invention is micronized.

Cc1cccc(-c2ccc3c(c2)c(C(=O)C(=O)O)cn3Cc2ccc(C(C)(C)C)cc2)c1 [[1-(4-tert-Butylbenzyl)-5-(3-methylphenyl)-1H-indol-3-yl](oxo)acetic acid]
Plasma concentration ([1]; 0.25 hours after dose): 2200 ng/mL and 3390 ng/mL and 3290 ng/mL
Plasma concentration ([1]; 0.5 hours after dose): 7500 ng/mL and 10400 ng/mL and 9190 ng/mL
Plasma concentration ([1]; 1 hour after dose): 18100 ng/mL and 21100 ng/mL and 20000 ng/mL
Plasma concentration ([1]; 2 hours after dose): 26300 ng/mL and 34700 ng/mL and 34100 ng/mL
Plasma concentration ([1]; 4 hours after dose): 29300 ng/mL and 31900 ng/mL and 46600 ng/mL
Plasma concentration ([1]; 6 hours after dose): 26900 ng/mL and 30300 ng/mL and 48000 ng/mL
Plasma concentration ([1]; 8 hours after dose): 26500 ng/mL and 24000 ng/mL and 37600 ng/mL
Plasma concentration ([1]; 10 hours after dose): 25300 ng/mL and 40100 ng/mL and 15900 ng/mL and 28200 ng/mL
Plasma concentration ([1]; 12 hours after dose): 19700 ng/mL and 43600 ng/mL and 12400 ng/mL and 22300 ng/mL
Plasma concentration ([1]; 24 hours after dose): 4720 ng/mL and 25900 ng/mL and 2410 ng/mL and 21900 ng/mL
Plasma concentration ([1]; 30 hours after dose): 2610 ng/mL and 15200 ng/mL and 1240 ng/mL and 10600 ng/mL
concentration at 0.25 h ([1]; male, dog, in vivo, po, 300 mg/kg, 0.25 hours after dose): 2330 ng/mL
concentration at 0.5 h ([1]; male, dog, in vivo, po, 300 mg/kg, 0.5 hours after dose): 8190 ng/mL
concentration at 1 h ([1]; male, dog, in vivo, po, 300 mg/kg, 1 hour after dose): 16700 ng/mL
concentration at 2 h ([1]; male, dog, in vivo, po, 300 mg/kg, 2 hours after dose): 30000 ng/mL
concentration at 4 h ([1]; male, dog, in vivo, po, 300 mg/kg, 4 hours after dose): 43000 ng/mL
concentration at 6 h ([1]; male, dog, in vivo, po, 300 mg/kg, 6 hours after dose): 39400 ng/mL
concentration at 8 h ([1]; male, dog, in vivo, po, 300 mg/kg, 8 hours after dose): 31900 ng/mL
solubility enhancement ([2]; 2% Tween80/0.5% methylcellulose solution versus water): 26.000 fold
solubility ([2]; 2% Tween80/0.5% methylcellulose solution, pH 3.5, aqueous with cosolvent or surfactant or cyclodextrin, read-out: solubility): 580 µg/mL (≈ 1360 µM)
solubility ([2]; aqueous HCl/NaOH solution, aqueous buffer, thermodynamic from solid, in the ionized form (so in the source), read-out: aqueous solubility): ~0.25 µg/mL (≈ 0.588 µM)
pH-solubility profile ([2]; free acid in HCl/NaOH solution, 24 hours equilibration (2 hours for pH<4)): Above pH 4, solubility increases with increasing pH up to pH˜8; also recorded: Above pH 8, solubility decreases due to precipitation of the sodium salt
aqueous solubility ([2]; upon ionization in aqueous media): approximately 24 uG/mL
solubility at 24 h ([2]; water, thermodynamic from solid, neutral pH 6.9): 24 µg/mL (≈ 56.4 µM)
